Earlier results, collected in PubChem BioAssay AID1259409 (Chemical Carcinogenesis Research Information System (CCRIS), 2018).

Test system: rodent chemically induced tumor inhibition, incidence and multiplicity
Experiment: CCRIS tumor inhibitor studies
Settings: Dose [Inhibitor]: 0, Route [Inhibitor]: ORAL, Species: RAT, Strain/Sex: F344/MALE, Promoter: NONE USED

SMILES: O=C(O)c1ccc(O)c(O)c1
- tumour outcome (control, treated, inhibition, significance) (Carcinogen: AZOXYMETHANE, 25843-45-2, 1000 PPM IN DIET FOR 28 WK BEGINNING 1 WK POST CARCINOGEN TREATMENT (STUDY DURATION: 32 WK), Target Tissue: Type of Lesion: LARGE INTESTINE: ADENOMA, Dose [Carcinogen]: 15 MG/KG BW 1/WK FOR 3 WK): 2/20 (10%), 2/23 (9%), 10%, not significant
- tumour outcome (control, treated, inhibition, significance) (Carcinogen: AZOXYMETHANE, 25843-45-2, 1000 PPM IN DIET FOR 28 WK BEGINNING 1 WK POST CARCINOGEN TREATMENT (STUDY DURATION: 32 WK), Target Tissue: Type of Lesion: SMALL INTESTINE: ADENOCARCINOMA, Dose [Carcinogen]: 15 MG/KG BW 1/WK FOR 3 WK): 6/20 (30%), 2/23 (9%), 70%, not significant
- tumour outcome (control, treated, inhibition, significance) (Carcinogen: AZOXYMETHANE, 25843-45-2, 1000 PPM IN DIET FOR 28 WK BEGINNING 1 WK POST CARCINOGEN TREATMENT (STUDY DURATION: 32 WK), Target Tissue: Type of Lesion: SMALL INTESTINE: ADENOMA, Dose [Carcinogen]: 15 MG/KG BW 1/WK FOR 3 WK): 1/20 (5%), 1/23 (4%), 20%, not significant
- tumour outcome (control, treated, inhibition, significance) (Carcinogen: DIETHYLNITROSAMINE, 55-18-5, 500 PPM IN DIET BEGINNING 1 WK PRIOR TO CARCINOGEN AND CONTINUING FOR 7 WK FOLLOWED BY BASAL DIET FOR 30 WK (STUDY DU, Target Tissue: Type of Lesion: LIVER: ADENOMA OR CARCINOMA, Dose [Carcinogen]: 40 PPM IN DRINKING WATER FOR 5 WK BEGINNING AT 7 WK OF AGE): 18/18 (100%), 12/17 (71%), 29%, p=0.02
- tumour outcome (control, treated, inhibition, significance) (Carcinogen: DIETHYLNITROSAMINE, 55-18-5, 500 PPM IN DIET FOR 7 WK BEGINNING 1 WK PRIOR TO CARCINOGEN TREATMENT (STUDY DURATION: 37 WK), Target Tissue: Type of Lesion: LIVER: ADENOMA, Dose [Carcinogen]: 40 PPM IN DRINKING WATER FOR 5 WK): 89%, 59%, 34%, not significant
- tumour outcome (control, treated, inhibition, significance) (Carcinogen: DIETHYLNITROSAMINE, 55-18-5, 500 PPM IN DIET FOR 7 WK BEGINNING 1 WK PRIOR TO CARCINOGEN TREATMENT (STUDY DURATION: 37 WK), Target Tissue: Type of Lesion: LIVER: CARCINOMA, Dose [Carcinogen]: 40 PPM IN DRINKING WATER FOR 5 WK): 89%, 71%, 20%, not significant
- tumour outcome (control, treated, inhibition, significance) (Carcinogen: DIETHYLNITROSAMINE, 55-18-5, 500 PPM IN DIET FOR 30 WK BEGINNING 1 WK POST CARCINOGEN TREATMENT (STUDY DURATION: 37 WK), Target Tissue: Type of Lesion: LIVER: ADENOMA, Dose [Carcinogen]: 40 PPM IN DRINKING WATER FOR 5 WK): 89%, 60%, 33%, p<0.05
- tumour outcome (control, treated, inhibition, significance) (Carcinogen: DIETHYLNITROSAMINE, 55-18-5, 1000 PPM IN DIET FOR 7 WK BEGINNING 1 WK PRIOR TO CARCINOGEN TREATMENT (STUDY DURATION: 37 WK), Target Tissue: Type of Lesion: LIVER: ADENOMA, Dose [Carcinogen]: 40 PPM IN DRINKING WATER FOR 5 WK): 89%, 37%, 58%, p<0.05
- tumour outcome (control, treated, inhibition, significance) (Carcinogen: DIETHYLNITROSAMINE, 55-18-5, 1000 PPM IN DIET FOR 30 WK BEGINNING 1 WK POST CARCINOGEN TREATMENT (STUDY DURATION: 37 WK), Target Tissue: Type of Lesion: LIVER: ADENOMA, Dose [Carcinogen]: 40 PPM IN DRINKING WATER FOR 5 WK): 89%, 68%, 24%, not significant
- tumour outcome (control, treated, inhibition, significance) (Carcinogen: DIETHYLNITROSAMINE, 55-18-5, 1000 PPM IN DIET FOR 30 WK BEGINNING 1 WK POST CARCINOGEN TREATMENT (STUDY DURATION: 37 WK), Target Tissue: Type of Lesion: LIVER: CARCINOMA, Dose [Carcinogen]: 40 PPM IN DRINKING WATER FOR 5 WK): 89%, 32%, 64%, p<0.05
- tumour outcome (control, treated, inhibition, significance) (Carcinogen: N-BUTYL-N-(4-HYDROXYBUTYL)NITROSAMINE, 3817-11-6, 500 PPM IN DIET FOR 8 WK BEGINNING 1 WK PRIOR TO CARCINOGEN TREATMENT (STUDY DURATION: 41 WK), Target Tissue: Type of Lesion: BLADDER: CARCINOMA, Dose [Carcinogen]: 0.05% IN DRINKING WATER FOR 6 WK): 17/22 (77%), 13/22 (59%), 23%, not significant
- tumour outcome (control, treated, inhibition, significance) (Carcinogen: N-BUTYL-N-(4-HYDROXYBUTYL)NITROSAMINE, 3817-11-6, 500 PPM IN DIET FOR 8 WK BEGINNING 1 WK PRIOR TO CARCINOGEN TREATMENT (STUDY DURATION: 41 WK), Target Tissue: Type of Lesion: BLADDER: PAPILLOMA, Dose [Carcinogen]: 0.05% IN DRINKING WATER FOR 6 WK): 1/22 (5%), 3/22 (14%), -180%, not significant
- tumour outcome (control, treated, inhibition, significance) (Carcinogen: N-BUTYL-N-(4-HYDROXYBUTYL)NITROSAMINE, 3817-11-6, 500 PPM IN DIET FOR 33 WK BEGINNING 1 WK POST CARCINOGEN TREATMENT (STUDY DURATION: 41 WK), Target Tissue: Type of Lesion: BLADDER: CARCINOMA, Dose [Carcinogen]: 0.05% IN DRINKING WATER FOR 6 WK): 17/22 (77%), 13/25 (52%), 32%, not significant
- tumour outcome (control, treated, inhibition, significance) (Carcinogen: N-BUTYL-N-(4-HYDROXYBUTYL)NITROSAMINE, 3817-11-6, 500 PPM IN DIET FOR 33 WK BEGINNING 1 WK POST CARCINOGEN TREATMENT (STUDY DURATION: 41 WK), Target Tissue: Type of Lesion: BLADDER: PAPILLOMA, Dose [Carcinogen]: 0.05% IN DRINKING WATER FOR 6 WK): 1/22 (5%), 4/25 (16%), -220%, not significant
- tumour outcome (control, treated, inhibition, significance) (Carcinogen: N-BUTYL-N-(4-HYDROXYBUTYL)NITROSAMINE, 3817-11-6, 1000 PPM IN DIET FOR 8 WK BEGINNING 1 WK PRIOR TO CARCINOGEN TREATMENT (STUDY DURATION: 41 WK), Target Tissue: Type of Lesion: BLADDER: CARCINOMA, Dose [Carcinogen]: 0.05% IN DRINKING WATER FOR 6 WK): 17/22 (77%), 9/22 (41%), 47%, p<0.03
- tumour outcome (control, treated, inhibition, significance) (Carcinogen: N-BUTYL-N-(4-HYDROXYBUTYL)NITROSAMINE, 3817-11-6, 1000 PPM IN DIET FOR 8 WK BEGINNING 1 WK PRIOR TO CARCINOGEN TREATMENT (STUDY DURATION: 41 WK), Target Tissue: Type of Lesion: BLADDER: PAPILLOMA, Dose [Carcinogen]: 0.05% IN DRINKING WATER FOR 6 WK): 1/22 (5%), 0/22 (0%), 100%, not significant
- tumour outcome (control, treated, inhibition, significance) (Carcinogen: N-BUTYL-N-(4-HYDROXYBUTYL)NITROSAMINE, 3817-11-6, 1000 PPM IN DIET FOR 33 WK BEGINNING 1 WK POST CARCINOGEN TREATMENT (STUDY DURATION: 41 WK), Target Tissue: Type of Lesion: BLADDER: CARCINOMA, Dose [Carcinogen]: 0.05% IN DRINKING WATER FOR 6 WK): 17/22 (77%), 12/25 (48%), 38%, p<0.05
- tumour outcome (control, treated, inhibition, significance) (Carcinogen: N-BUTYL-N-(4-HYDROXYBUTYL)NITROSAMINE, 3817-11-6, 1000 PPM IN DIET FOR 33 WK BEGINNING 1 WK POST CARCINOGEN TREATMENT (STUDY DURATION: 41 WK), Target Tissue: Type of Lesion: BLADDER: PAPILLOMA, Dose [Carcinogen]: 0.05% IN DRINKING WATER FOR 6 WK): 1/22 (5%), 2/25 (8%), -60%, not significant
- tumour outcome (control, treated, inhibition, significance) (Carcinogen: N-BUTYL-N-(4-HYDROXYBUTYL)NITROSAMINE, 3817-11-6, 2000 PPM IN DIET FOR 8 WK BEGINNING 1 WK PRIOR TO CARCINOGEN TREATMENT (STUDY DURATION: 41 WK), Target Tissue: Type of Lesion: BLADDER: CARCINOMA, Dose [Carcinogen]: 0.05% IN DRINKING WATER FOR 6 WK): 17/22 (77%), 8/25 (32%), 58%, p<0.005
- tumour outcome (control, treated, inhibition, significance) (Carcinogen: N-BUTYL-N-(4-HYDROXYBUTYL)NITROSAMINE, 3817-11-6, 2000 PPM IN DIET FOR 8 WK BEGINNING 1 WK PRIOR TO CARCINOGEN TREATMENT (STUDY DURATION: 41 WK), Target Tissue: Type of Lesion: BLADDER: PAPILLOMA, Dose [Carcinogen]: 0.05% IN DRINKING WATER FOR 6 WK): 1/22 (5%), 3/25 (12%), -140%, not significant
